The values that follow are results of earlier work, collected in patent publication US20240207252A1, “AEROSOL-FORMING SUBSTRATE AND AEROSOL-GENERATING SYSTEM” (SHENZHEN FIRST UNION TECHNOLOGY CO., LTD., priority 2021, published 2024).

Each structure is given as a SMILES string.

The conditions of this data set: single oral administration.

`COC(=O)[C@@H]1[C@H]2C[C@H]3c4[nH]c5ccccc5c4CCN3C[C@@H]2CC[C@@H]1O` [yohimbine, methyl 17alpha-hydroxyyohimban-16alpha-carboxylate]: the Tmax entry is “less than 1 h” and the t1/2 entry is “less than 1 h”.
